Here are results for 1 compound from patent US20140228287A1, “1-[(3-CYANO-PYRIDIN-2-YL)METHYL]-3-METHYL-7-(2-BUTYN-1-YL)-8-[3-(R)-AMINO-PIPERIDIN-1-YL]-AXANTHINE FOR THE TREATMENT OF A METABOLIC DISORDER OF A PREDOMINANTLY CARNIVOROUS NON-HUMAN ANIMAL” (BOEHRINGER INGELHEIM VETMEDICA GMBH, priority 2010, published 2014).

Entries after “also recorded” stand apart in the source; their conditions may differ. Structures can show the parent of a compound that is named as a salt.

Data set [1] is described as follows: 60-Day tolerability study of tablets in cats: adverse effects. The class given is in vivo. The following applies: 20 and 40 mg daily oral tablets for 60 days, monohydrochloride. As to the method: (§1) This study was conducted in order to examine the long-term tolerability of a pharmaceutical composition comprising 1-[(3-cyano-pyridin-2-yl)methyl]-3-methyl-7-(2-butyn-1-yl)-8-[3-(R)-amino-piperidin-1-yl]-xanthine monohydrochloride in cats after repeated oral administration for 60-days.
(§2) For this purpose, the compound according to the invention has been admixed with standard ingredients to a scored, oblong, brown tablet, size 10×5.5 mm, comprising 1-[(3-cyano-pyridin-2-yl)methyl]-3-methyl-7-(2-butyn-1-yl)-8-[3-(R)-amino-piperidin-1-yl]-xanthine monohydrochloride at 21.68 mg of the chloride per tablet (which equals 20 mg of the free base) and 10% meat flavour.
20 male healthy non-obese cats (Domestic short hair feline) supplied by Liberty Research, Inc., Waverly, N.Y., USA, of an age of 13 to 20 months were used. After an adaptation period of 4 weeks, they were separated into three groups: group 1 (6 members, no. 1 to 6) for placebo treatment, group 2 (7 members, no. 7 to 13) for treatment with 20 mg/cat, group 3 (7 members, no. 14 to 20) for treatment with 40 mg/cat. They were treated once daily in the morning, orally with the respective tablet(s) for 60 days. All animals had fasted over night and were fed 4 hours after the administration. Drinking water was offered ad libitum. […]

For the next data set, the system named is GLP-1. As to the kind of experiment: Single dose study (1.0/5.0/10.0 mg/kg) in cats: GLP-1 after feeding. The conditions noted are these: single oral 1, 5, 10 mg/kg; feeding at 8 h after treatment. The class given is in vivo, cat. As to the method: Twelve clinically healthy male adult domestic short hair cats with a body weight range of 3.5-4.7 kg were used in this study. All animals were treated orally once via a stomach tube. Blood samples for pharmacokinetic and pharmacodynamic (DPP IV activity) investigations were drawn at 0 h (i.e. prior to treatment), 30 min as well as 1, 2, 4, 8, 8.5, 9, 12, 24, 36, 48, 72, 84 and 96 h after treatment. Blood samples for pharmacodynamic (glucagon-like peptide 1 concentrations) investigations were drawn at −16 (i.e. prior to feeding), −15.5, −15 h as well as at 8 h (i.e. prior to feeding), 8.5 and 9 h after treatment.

For the next data set, the target named is T1, DPP IV (Felis catus, UniProt Q9N2I7).
T1 construct: Blood samples for the determination of this compound and DPP IV activity were collected; from tissue; host or cells: plasma of domestic short hair / purpose-bred cats dosed orally
T1 sequence (Q9N2I7 38-765 limits assumed): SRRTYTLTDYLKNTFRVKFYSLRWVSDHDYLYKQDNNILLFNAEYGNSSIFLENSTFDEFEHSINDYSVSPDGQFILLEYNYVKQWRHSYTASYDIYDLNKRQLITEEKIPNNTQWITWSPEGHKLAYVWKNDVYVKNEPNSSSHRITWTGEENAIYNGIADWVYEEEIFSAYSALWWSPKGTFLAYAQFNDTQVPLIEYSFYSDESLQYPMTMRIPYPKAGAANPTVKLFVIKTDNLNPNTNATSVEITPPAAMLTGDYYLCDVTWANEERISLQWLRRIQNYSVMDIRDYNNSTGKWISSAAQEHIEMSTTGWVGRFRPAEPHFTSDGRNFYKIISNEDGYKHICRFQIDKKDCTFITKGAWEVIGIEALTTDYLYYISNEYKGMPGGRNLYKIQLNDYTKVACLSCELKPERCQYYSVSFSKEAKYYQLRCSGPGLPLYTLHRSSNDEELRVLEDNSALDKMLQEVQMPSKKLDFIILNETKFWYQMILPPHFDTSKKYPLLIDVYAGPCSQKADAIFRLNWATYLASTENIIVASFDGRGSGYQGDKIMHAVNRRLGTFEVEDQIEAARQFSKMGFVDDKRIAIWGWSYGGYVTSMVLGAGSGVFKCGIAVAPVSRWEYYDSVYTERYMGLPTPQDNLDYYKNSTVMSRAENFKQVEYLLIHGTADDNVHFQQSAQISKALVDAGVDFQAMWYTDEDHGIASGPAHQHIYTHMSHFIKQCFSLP
As to the kind of experiment: 60-Day tolerability study of tablets in cats: relative DPP IV activity. The class given is in vivo, cat. The following applies: percent of day 2 predose. How it is done:
as §1, §2
20 male healthy non-obese cats (Domestic short hair feline) supplied by Liberty Research, Inc., Waverly, N.Y., USA, of an age of 13 to 20 months were used. After an adaptation period of 4 weeks, they were separated into three groups: group 1 (6 members, no. 1 to 6) for placebo treatment, group 2 (7 members, no. 7 to 13) for treatment with 20 mg/cat, group 3 (7 members, no. 14 to 20) for treatment with 40 mg/cat. They were treated once daily in the morning, orally with the respective tablet(s) for 60 days. All animals had fasted over night and were fed 4 hours after the administration. Drinking water was offered ad libitum. Housing conditions etc. were kept constant and equally for all animals; they were kept in groups during the adaptation period and singly during the experimental period.
Relative DPP-IV activity was measured as described above.

On to `CC#CCn1c(N2CCC[C@@H](N)C2)nc2c1c(=O)n(Cc1ncccc1C#N)c(=O)n2C` [1-[(3-cyano-pyridin-2-yl)methyl]-3-methyl-7-(2-butyn-1-yl)-8-[3-(R)-amino-piperidin-1-yl]-xanthine monohydrochloride], for which the “adverse effects / tolerability” value in data set [1] was “Adverse effects were not detected; also recorded: well tolerated”. Further, the “mean GLP-1 concentration after feeding” value in the data set with GLP-1 is recorded as “an increase of the mean GLP-1 concentration was observed after feeding”. Also, the “Relative DPP IV activity” value on DPP IV (Group no. 2 (20 mg daily tablets), Treatment day 60 (1 h after dose)) is given as 11%; at DPP IV (Group no. 2, excl. animal no. 8 (20 mg daily tablets), Treatment day 60 (predose)), 17%; at DPP IV (Group no. 3 (40 mg daily tablets), Treatment day 60 (1 h after dose)), 10%; on DPP IV (Group no. 3 (40 mg daily tablets), Treatment day 60 (predose)) it was 16%.
